Source: article PMC7126728 (Bioorganic & Medicinal Chemistry, 2015)

How the values were obtained:
VZV = format: cell-based, varicella zoster virus; settings: HEL cell cultures
HCMV = format: cell-based, human cytomegalovirus; settings: HEL cell cultures

| Compound | anti-VZV activity (in words) (VZV) | anti-HCMV activity (in words) (HCMV) |
| --- | --- | --- |
| O=C(Cn1c(=O)ccn(CCCCCOc2ccccc2)c1=O)Nc1ccc(Oc2ccccc2)cc1 [Compound 7a, 2-[2,6-Dioxo-3-(5-phenoxypentyl)-3,6-dihydropyrimidin-1(2H)-yl]-N-(4-phenoxyphenyl)acetamide] | inactive | – |
| O=C(Cn1c(=O)c(I)cn(CCCCCOc2ccc(Br)cc2)c1=O)Nc1ccc(Oc2ccccc2)cc1 [Compound 7j, 2-[3-[5-(4-Bromophenoxy)pentyl]-5-iodo-2,6-dioxo-3,6-dihydropyrimidin-1(2H)-yl]-N-(4-phenoxyphenyl)acetamide] | completely inactive | completely inactive |
| O=C(Cn1c(=O)ccn(CCCCCCc2ccccc2)c1=O)Nc1ccc(Oc2ccccc2)cc1 [Compound 13, 2-[2,6-Dioxo-3-(6-phenylhexyl)-3,6-dihydropyrimidin-1(2H)-yl]-N-(4-phenoxyphenyl)acetamide] | loss of activity | loss of activity |
| O=C(Cn1c(=O)ccn(CCCCOCc2ccc(Br)cc2)c1=O)Nc1ccc(Oc2ccccc2)cc1 [Compound 17, 2-[3-[4-(4-Bromobenzyloxy)butyl]-2,6-dioxo-3,6-dihydropyrimidin-1(2H)-yl]-N-(4-phenoxyphenyl)acetamide] | loss of activity | – |
| O=C(Cn1c(=O)ccn(COCCOCc2ccc(Br)cc2)c1=O)Nc1ccc(Oc2ccccc2)cc1 [Compound 20, 2-[3-[[2-(4-Bromobenzyloxy)ethoxy]methyl]-2,6-dioxo-3,6-dihydropyrimidin-1(2H)-yl]-N-(4-phenoxyphenyl)acetamide] | loss of activity | completely inactive |
| O=C(Cn1c(=O)ccn(Cc2ccc(Oc3ccc(Br)cc3)cc2)c1=O)Nc1ccc(Oc2ccccc2)cc1 [Compound 23, 2-[3-[4-(4-Bromophenoxy)benzyl]-2,6-dioxo-3,6-dihydropyrimidin-1(2H)-yl]-N-(4-phenoxyphenyl)acetamide] | loss of activity | – |
